US8952024B2, “Herbicidal pyrimidone derivatives” (E I du Pont de Nemours and Company, priority 2009, dated 2015)

Experiments:
Experiment in all cases: Test B pre-/postemergence plant response
Type in all cases: in vivo
[1] = system: Italian ryegrass (Lolium multiflorum)
Summary of the method: (§1)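 Seeds sown in loam–sand blend were treated preemergence, and plants at 2–18 cm (1- to 4-leaf stage) in peat-based medium were treated postemergence; compounds were formulated in non-phytotoxic solvent with surfactant. After 13–15 days in greenhouse, response was visually rated against controls, 0 (no effect) to 100 (complete control).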

[2] = system: Surinam grass (Brachiaria decumbens)
Summary of the method: as §1

[3] = system: downy bromegrass (Bromus tectorum)
Summary of the method: as §1

[4] = system: goosegrass (Eleusine indica)
Summary of the method: as §1

[5] = system: green foxtail (Setaria viridis)
Summary of the method: as §1

[6] = system: lambsquarters (Chenopodium album)
Summary of the method: as §1

[7] = system: large crabgrass (Digitaria sanguinalis)
Summary of the method: as §1

[8] = system: pigweed (Amaranthus retroflexus)
Summary of the method: as §1

[9] = system: ragweed (common ragweed, Ambrosia elatior)
Summary of the method: as §1

[10] = system: velvetleaf (Abutilon theophrasti)
Summary of the method: as §1

[11] = system: wheat (Triticum aestivum)
Summary of the method: as §1

[12] = system: woolly cupgrass (Eriochloa villosa)
Summary of the method: as §1

[13] = system: yellow nutsedge (Cyperus esculentus)
Summary of the method: as §1

[14] = 31 g ai/ha, postemergence, scale 0 to 100, 0 is no effect, 100 is complete control
[15] = Postemergence, 62 g ai/ha, scale 0 (no effect) to 100 (complete control), 13 to 15 days
[16] = Postemergence, 125 g ai/ha, visual rating after 13 to 15 days, scale 0 (no effect) to 100 (complete control)
[17] = Postemergence, 250 g ai/ha, scale 0 to 100 (0 no effect, 100 complete control)
[18] = Preemergence, 31 g ai/ha, scale 0 to 100 (0 no effect, 100 complete control)
[19] = Preemergence, 62 g ai/ha, scale 0 to 100 (0 no effect, 100 complete control)
[20] = Preemergence, 125 g ai/ha, scale 0 to 100, 0 no effect, 100 complete control
[21] = 250 g ai/ha, Preemergence, 0 to 100 scale

In the case of `CCCCc1ncc(C(=O)C2=C(O)CCCC2=O)c(=O)n1-c1cccc(C)c1` [Compound 63], the “Plant response rating, Ryegrass, Italian” value [1, 14] is reported as 0, the “Plant response rating, Ryegrass, Italian” value [1, 15] is reported as 0 and the “Plant response rating, Ryegrass, Italian” value [1, 16] is reported as 0. For the same compound, the “Plant response rating, Ryegrass, Italian” value [1, 17] was 10, the “Plant response rating, Ryegrass, Italian” value [1, 18] was 0 and the “Plant response rating, Ryegrass, Italian” value [1, 19] was 0. The “Plant response rating, Ryegrass, Italian” value [1, 20] was 0, the “Plant response rating, Surinam Grass” value [2, 14] was 10 and the “Plant response rating, Surinam Grass” value [2, 15] was 25. For the same compound, the “Plant response rating, Surinam Grass” value [2, 16] was 35, the “Plant response rating, Surinam Grass” value [2, 17] was 75 and the “Plant response rating, Surinam Grass” value [2, 18] was 0. The “Plant response rating, Surinam Grass” value [2, 19] was 0, the “Plant response rating, Surinam Grass” value [2, 20] was 55 and the “Plant response rating, Bromegrass, Downy” value [3, 14] was 10. For the same compound, the “Plant response rating, Bromegrass, Downy” value [3, 21] was 0, the “Plant response rating, Bromegrass, Downy” value [3, 15] was 20 and the “Plant response rating, Bromegrass, Downy” value [3, 16] was 20. The “Plant response rating, Bromegrass, Downy” value [3, 17] was 40, the “Plant response rating, Bromegrass, Downy” value [3, 18] was 0 and the “Plant response rating, Bromegrass, Downy” value [3, 19] was 0. The “Plant response rating, Bromegrass, Downy” value [3, 20] was 0, the “Plant response rating, Goosegrass” value [4, 14] was 70 and the “Plant response rating, Goosegrass” value [4, 21] was 100. For the same compound, the “Plant response rating, Goosegrass” value [4, 15] was 70, the “Plant response rating, Goosegrass” value [4, 16] was 70 and the “Plant response rating, Goosegrass” value [4, 17] was 75. The “Plant response rating, Goosegrass” value [4, 18] was 90, the “Plant response rating, Goosegrass” value [4, 19] was 98 and the “Plant response rating, Goosegrass” value [4, 20] was 100. For the same compound, the “Plant response rating, Foxtail, Green” value [5, 14] was 60, the “Plant response rating, Foxtail, Green” value [5, 21] was 30 and the “Plant response rating, Foxtail, Green” value [5, 15] was 70. The “Plant response rating, Foxtail, Green” value [5, 16] was 70, the “Plant response rating, Foxtail, Green” value [5, 17] was 90 and the “Plant response rating, Foxtail, Green” value [5, 18] was 0. For the same compound, the “Plant response rating, Lambsquarters” value [6, 21] was 100, the “Plant response rating, Lambsquarters” value [6, 15] was 95 and the “Plant response rating, Lambsquarters” value [6, 16] was 98. The “Plant response rating, Lambsquarters” value [6, 17] was 98, the “Plant response rating, Lambsquarters” value [6, 18] was 98 and the “Plant response rating, Lambsquarters” value [6, 19] was 98. The “Plant response rating, Lambsquarters” value [6, 20] was 100, the “Plant response rating, Crabgrass, Large” value [7, 14] was 70 and the “Plant response rating, Crabgrass, Large” value [7, 21] was 100. For the same compound, the “Plant response rating, Crabgrass, Large” value [7, 15] was 75, the “Plant response rating, Crabgrass, Large” value [7, 16] was 80 and the “Plant response rating, Crabgrass, Large” value [7, 17] was 90. The “Plant response rating, Crabgrass, Large” value [7, 18] was 50, the “Plant response rating, Crabgrass, Large” value [7, 19] was 85 and the “Plant response rating, Crabgrass, Large” value [7, 20] was 100. For the same compound, the “Plant response rating, Pigweed” value [8, 14] was 85, the “Plant response rating, Pigweed” value [8, 15] was 95 and the “Plant response rating, Pigweed” value [8, 16] was 95. For the same compound, the “Plant response rating, Pigweed” value [8, 17] was 100, the “Plant response rating, Pigweed” value [8, 18] was 95 and the “Plant response rating, Pigweed” value [8, 19] was 98. For the same compound, the “Plant response rating, Pigweed” value [8, 20] was 100, the “Plant response rating, Ragweed” value [9, 14] was 70 and the “Plant response rating, Ragweed” value [9, 15] was 75. For the same compound, the “Plant response rating, Ragweed” value [9, 16] was 80, the “Plant response rating, Ragweed” value [9, 17] was 80 and the “Plant response rating, Ragweed” value [9, 18] was 65. For the same compound, the “Plant response rating, Ragweed” value [9, 19] was 65, the “Plant response rating, Ragweed” value [9, 20] was 70 and the “Plant response rating, Velvetleaf” value [10, 14] was 95. The “Plant response rating, Velvetleaf” value [10, 15] was 98, the “Plant response rating, Velvetleaf” value [10, 16] was 98 and the “Plant response rating, Velvetleaf” value [10, 17] was 98. The “Plant response rating, Velvetleaf” value [10, 18] was 75, the “Plant response rating, Velvetleaf” value [10, 19] was 90 and the “Plant response rating, Velvetleaf” value [10, 20] was 100. For the same compound, the “Plant response rating, Wheat” value [11, 14] was 0, the “Plant response rating, Wheat” value [11, 15] was 0 and the “Plant response rating, Wheat” value [11, 16] was 0. The “Plant response rating, Wheat” value [11, 17] was 10, the “Plant response rating, Wheat” value [11, 18] was 0 and the “Plant response rating, Wheat” value [11, 19] was 0. The “Plant response rating, Wheat” value [11, 20] was 0, the “Plant response rating, Cupgrass, Woolly” value [12, 14] was 50 and the “Plant response rating, Cupgrass, Woolly” value [12, 21] was 10. For the same compound, the “Plant response rating, Cupgrass, Woolly” value [12, 15] was 60, the “Plant response rating, Cupgrass, Woolly” value [12, 16] was 65 and the “Plant response rating, Cupgrass, Woolly” value [12, 17] was 65. The “Plant response rating, Cupgrass, Woolly” value [12, 18] was 0, the “Plant response rating, Cupgrass, Woolly” value [12, 19] was 0 and the “Plant response rating, Cupgrass, Woolly” value [12, 20] was 0. The “Plant response rating, Nutsedge, Yellow” value [13, 14] was 20, the “Plant response rating, Nutsedge, Yellow” value [13, 15] was 20 and the “Plant response rating, Nutsedge, Yellow” value [13, 16] was 50. For the same compound, the “Plant response rating, Nutsedge, Yellow” value [13, 17] was 60, the “Plant response rating, Nutsedge, Yellow” value [13, 18] was 10 and the “Plant response rating, Nutsedge, Yellow” value [13, 19] was 15. For the same compound, the “Plant response rating, Nutsedge, Yellow” value [13, 20] was 25.
